Data from ChEMBL document CHEMBL1201862, “PubChem BioAssay data set” (2004).
Calls of active or inactive are those of the source.

Experiments:
[1] = target: T1, Calpain-2 catalytic subunit (Sus scrofa, UniProt P43367); assay: pig calpain II inhibitor potency, dose response, biochemical, fluorogenic peptide substrate (AID 1420); assay type: functional
T1 sequence (P43367 whole entry): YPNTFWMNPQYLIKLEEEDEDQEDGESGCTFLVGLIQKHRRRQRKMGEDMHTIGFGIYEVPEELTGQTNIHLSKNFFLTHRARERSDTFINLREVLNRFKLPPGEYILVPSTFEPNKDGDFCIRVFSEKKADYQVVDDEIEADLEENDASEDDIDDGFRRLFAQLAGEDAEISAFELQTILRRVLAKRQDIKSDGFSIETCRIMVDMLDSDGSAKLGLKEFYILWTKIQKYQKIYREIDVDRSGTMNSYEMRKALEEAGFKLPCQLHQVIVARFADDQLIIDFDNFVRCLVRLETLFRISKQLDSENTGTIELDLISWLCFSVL

[2] = target: Heat shock protein HSP 90-alpha (Homo sapiens, UniProt P07900); assay type: functional, organism-based
Cytochrome P450 2C9 = Cytochrome P450 2C9 (Homo sapiens, UniProt P11712)
Protein RecA = target: T2, Protein RecA (Mycobacterium tuberculosis, UniProt P9WHJ3); assay: Fluorescence Cell-Free Homogeneous Dose Retest to Identify Inhibitors of RecA-Intein Splicing Activity. [Related pubchem assays (depositor defined):AID2097, AID2223, AID489010, AID492950]; assay type: functional
T2 sequence (P9WHJ3 whole entry): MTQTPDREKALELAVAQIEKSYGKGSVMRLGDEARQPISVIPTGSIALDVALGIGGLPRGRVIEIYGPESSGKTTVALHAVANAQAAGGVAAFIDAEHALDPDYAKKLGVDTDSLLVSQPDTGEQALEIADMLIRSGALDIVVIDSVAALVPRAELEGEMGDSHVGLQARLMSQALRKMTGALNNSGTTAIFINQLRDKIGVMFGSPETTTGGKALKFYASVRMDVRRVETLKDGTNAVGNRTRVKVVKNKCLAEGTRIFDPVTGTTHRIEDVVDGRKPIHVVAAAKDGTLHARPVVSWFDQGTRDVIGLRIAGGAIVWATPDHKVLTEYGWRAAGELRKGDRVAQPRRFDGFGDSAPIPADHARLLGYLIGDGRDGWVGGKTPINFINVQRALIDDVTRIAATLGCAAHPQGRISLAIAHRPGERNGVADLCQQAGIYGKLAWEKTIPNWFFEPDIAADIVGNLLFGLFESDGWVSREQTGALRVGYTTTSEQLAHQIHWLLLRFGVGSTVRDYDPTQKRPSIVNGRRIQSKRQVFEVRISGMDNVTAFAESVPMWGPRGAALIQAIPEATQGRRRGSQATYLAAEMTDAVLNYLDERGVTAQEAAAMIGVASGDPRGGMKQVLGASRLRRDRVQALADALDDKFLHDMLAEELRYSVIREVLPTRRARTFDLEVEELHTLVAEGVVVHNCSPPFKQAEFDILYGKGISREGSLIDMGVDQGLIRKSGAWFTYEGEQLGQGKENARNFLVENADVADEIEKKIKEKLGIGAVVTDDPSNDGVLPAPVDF

Cytochrome P450 2D6 = Cytochrome P450 2D6 (Homo sapiens, UniProt P10635);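 further: CYP2D6 member of a cytochrome P450 panel assay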
[3] = target: T3, Replicative DNA helicase DnaB (Mycobacterium tuberculosis, UniProt P9WMR3); assay: DnaB intein splicing inhibitors, dose response, biochemical, cell-free fluorescence (AID 449749); assay type: functional
T3 sequence (P9WMR3 whole entry): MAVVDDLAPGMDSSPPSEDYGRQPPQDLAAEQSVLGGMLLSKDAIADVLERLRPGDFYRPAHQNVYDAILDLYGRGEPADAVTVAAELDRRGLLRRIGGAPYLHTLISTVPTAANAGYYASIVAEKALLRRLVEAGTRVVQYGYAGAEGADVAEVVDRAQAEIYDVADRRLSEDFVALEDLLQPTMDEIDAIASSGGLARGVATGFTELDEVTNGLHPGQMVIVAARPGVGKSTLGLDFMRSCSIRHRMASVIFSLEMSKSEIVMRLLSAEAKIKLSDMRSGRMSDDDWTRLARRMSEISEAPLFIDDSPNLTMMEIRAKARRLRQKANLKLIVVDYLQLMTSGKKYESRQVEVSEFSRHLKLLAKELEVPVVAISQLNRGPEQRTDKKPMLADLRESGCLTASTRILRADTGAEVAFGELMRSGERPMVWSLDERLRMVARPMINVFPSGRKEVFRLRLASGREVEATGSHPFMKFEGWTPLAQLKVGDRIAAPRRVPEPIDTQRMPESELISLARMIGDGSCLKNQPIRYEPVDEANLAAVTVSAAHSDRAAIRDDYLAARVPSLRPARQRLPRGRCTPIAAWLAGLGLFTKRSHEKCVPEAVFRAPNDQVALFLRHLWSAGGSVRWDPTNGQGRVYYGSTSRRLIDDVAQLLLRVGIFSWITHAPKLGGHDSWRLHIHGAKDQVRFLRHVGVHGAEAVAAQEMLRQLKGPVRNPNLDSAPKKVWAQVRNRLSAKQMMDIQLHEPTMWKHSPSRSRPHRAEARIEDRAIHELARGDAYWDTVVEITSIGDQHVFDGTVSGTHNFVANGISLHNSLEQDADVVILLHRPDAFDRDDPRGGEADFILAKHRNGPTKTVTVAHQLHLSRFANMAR

Streptococcus = assay: Group A Streptococcus viability loss, dose response, counter-screen for streptokinase expression inhibitor project, luminescence, BacTiterGlo (AID 1915); assay type: functional, organism-based;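 further: potency for reduction of bacterial viability or growth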
[4] = NIH-3T3 fibroblast cytotoxicity, dose response, cytotoxicity control, cell-based, fluorescence, Alamar Blue, secondary assay (AID 2327); assay type: functional;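 further: NIH-3T3 mouse fibroblasts cultured with fluconazole at 8 µg/mL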
[5] = test system: Streptococcus sp. 'group A'; assay: growth inhibition of control SK(-) GAS strain, dose response, counter-screen for streptokinase expression inhibitor project, luminescence, kanamycin, BacTiterGlo, confirmation (AID 1900); assay type: functional, organism-based
[6] = C. albicans growth with fluconazole, confirmation, fluorescence, retest (AID 2467); assay type: functional, cell-based
Leucine aminopeptidase = target: T4, Leucine aminopeptidase (Plasmodium falciparum 3D7, UniProt Q8IL11); assay: P. falciparum M17LAP inhibitors, primary screen, biochemical, fluorogenic H-Leu-NHMec substrate, 1536-well (AID 1619); assay type: functional
T4 sequence (Q8IL11 whole entry): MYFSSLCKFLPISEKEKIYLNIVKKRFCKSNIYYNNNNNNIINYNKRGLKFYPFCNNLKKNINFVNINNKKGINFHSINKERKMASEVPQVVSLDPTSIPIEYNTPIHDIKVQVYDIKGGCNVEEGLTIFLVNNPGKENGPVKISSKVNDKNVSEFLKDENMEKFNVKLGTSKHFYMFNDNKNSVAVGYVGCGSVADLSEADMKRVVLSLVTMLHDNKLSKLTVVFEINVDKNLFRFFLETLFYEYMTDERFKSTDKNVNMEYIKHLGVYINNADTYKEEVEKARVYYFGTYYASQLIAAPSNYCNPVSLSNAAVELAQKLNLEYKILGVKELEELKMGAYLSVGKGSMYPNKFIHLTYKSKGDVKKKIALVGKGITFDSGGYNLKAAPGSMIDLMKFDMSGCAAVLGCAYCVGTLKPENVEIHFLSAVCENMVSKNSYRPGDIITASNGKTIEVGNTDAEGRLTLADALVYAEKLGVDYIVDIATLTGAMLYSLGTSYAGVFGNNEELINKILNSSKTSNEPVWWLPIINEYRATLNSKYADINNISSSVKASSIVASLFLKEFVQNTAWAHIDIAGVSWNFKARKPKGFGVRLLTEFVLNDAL

[7] = HEp-2 cell cytotoxicity, dose response, cytotoxicity control for RSV inhibitor project, HTS (AID 2410); assay type: functional; settings: human respiratory syncytial virus
Large T antigen = Large T antigen (Simian virus 40, UniProt P03070); assay type: functional, Betapolyomavirus macacae;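 further: Confirmatory-stage PubChem screen for compounds that inhibit SV40 T antigen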
[8] = target: T5, Rac GTPase-activating protein 1 (Homo sapiens, UniProt Q9H0H5); assay: MgcRacGAP GTPase-activating activity inhibitors, confirmation, biochemical, ADP Hunter fluorescence, primary and confirmatory (AID 624330); assay type: functional
T5 sequence (Q9H0H5 whole entry): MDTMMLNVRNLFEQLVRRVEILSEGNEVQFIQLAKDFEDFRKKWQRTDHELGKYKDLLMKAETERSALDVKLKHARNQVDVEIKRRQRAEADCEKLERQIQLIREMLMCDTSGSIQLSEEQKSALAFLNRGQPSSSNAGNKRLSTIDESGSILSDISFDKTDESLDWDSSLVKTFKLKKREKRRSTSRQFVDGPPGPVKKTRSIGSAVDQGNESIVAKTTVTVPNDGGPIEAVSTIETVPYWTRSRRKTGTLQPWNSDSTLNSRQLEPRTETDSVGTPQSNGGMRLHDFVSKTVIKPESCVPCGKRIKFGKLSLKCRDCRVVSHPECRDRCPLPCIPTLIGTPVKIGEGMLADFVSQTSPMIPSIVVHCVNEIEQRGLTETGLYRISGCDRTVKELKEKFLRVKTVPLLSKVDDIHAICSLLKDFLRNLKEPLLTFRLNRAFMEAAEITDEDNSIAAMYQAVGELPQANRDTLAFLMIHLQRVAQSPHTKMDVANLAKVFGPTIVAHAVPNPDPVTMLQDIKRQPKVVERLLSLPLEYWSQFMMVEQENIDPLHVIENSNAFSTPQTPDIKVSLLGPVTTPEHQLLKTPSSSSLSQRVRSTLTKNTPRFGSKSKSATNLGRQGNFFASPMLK

[9] = target: FAD-linked sulfhydryl oxidase ALR (Homo sapiens, UniProt P55789); assay: inhibitors of human ALR sulfhydryl oxidase, dose response, biochemical, H2O2 detection, luminescence, cherry-pick (AID 493248)
Cytochrome P450 1A2 = target: T6, Cytochrome P450 1A2 (Homo sapiens, UniProt P05177);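 further: PubChem cytochrome P450 panel assay, CYP1A2 panel member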
T6 sequence (P05177 whole entry): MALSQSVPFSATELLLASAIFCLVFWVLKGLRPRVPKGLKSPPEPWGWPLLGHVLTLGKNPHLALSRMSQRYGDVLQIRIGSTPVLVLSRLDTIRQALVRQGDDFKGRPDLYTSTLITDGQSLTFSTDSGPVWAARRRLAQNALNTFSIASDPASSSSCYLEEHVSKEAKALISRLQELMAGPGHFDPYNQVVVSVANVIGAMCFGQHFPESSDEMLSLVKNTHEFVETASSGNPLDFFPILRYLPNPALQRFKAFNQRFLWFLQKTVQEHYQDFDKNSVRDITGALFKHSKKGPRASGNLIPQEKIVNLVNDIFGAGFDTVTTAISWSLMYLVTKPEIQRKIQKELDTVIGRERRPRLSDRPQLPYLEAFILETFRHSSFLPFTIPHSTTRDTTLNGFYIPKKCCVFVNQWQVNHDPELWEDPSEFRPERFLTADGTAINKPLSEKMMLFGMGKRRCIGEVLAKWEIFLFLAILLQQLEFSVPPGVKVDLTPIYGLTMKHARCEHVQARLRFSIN

[10] = Luminescence Cell-Based Dose Retest to Confirm Inhibitors of Cancer Stem Cells. [Related pubchem assays (depositor defined):AID2717, AID2721]; assay type: functional; settings: Homo sapiens

Sequence of Cytochrome P450 2C9 (P11712 whole entry): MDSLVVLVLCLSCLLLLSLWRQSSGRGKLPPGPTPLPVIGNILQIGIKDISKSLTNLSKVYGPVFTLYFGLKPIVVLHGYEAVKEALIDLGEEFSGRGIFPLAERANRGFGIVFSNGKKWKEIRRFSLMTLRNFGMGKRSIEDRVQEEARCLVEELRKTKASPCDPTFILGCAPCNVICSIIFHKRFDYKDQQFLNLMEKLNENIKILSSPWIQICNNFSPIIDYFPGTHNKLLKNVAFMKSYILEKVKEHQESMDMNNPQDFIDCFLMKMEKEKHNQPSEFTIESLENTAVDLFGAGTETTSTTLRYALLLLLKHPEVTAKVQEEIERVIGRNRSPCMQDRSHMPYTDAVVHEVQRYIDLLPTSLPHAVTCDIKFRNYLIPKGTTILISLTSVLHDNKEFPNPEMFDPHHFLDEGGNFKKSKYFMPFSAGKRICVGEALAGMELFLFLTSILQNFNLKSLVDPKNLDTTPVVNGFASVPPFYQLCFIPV
Sequence of Cytochrome P450 2D6 (P10635 whole entry): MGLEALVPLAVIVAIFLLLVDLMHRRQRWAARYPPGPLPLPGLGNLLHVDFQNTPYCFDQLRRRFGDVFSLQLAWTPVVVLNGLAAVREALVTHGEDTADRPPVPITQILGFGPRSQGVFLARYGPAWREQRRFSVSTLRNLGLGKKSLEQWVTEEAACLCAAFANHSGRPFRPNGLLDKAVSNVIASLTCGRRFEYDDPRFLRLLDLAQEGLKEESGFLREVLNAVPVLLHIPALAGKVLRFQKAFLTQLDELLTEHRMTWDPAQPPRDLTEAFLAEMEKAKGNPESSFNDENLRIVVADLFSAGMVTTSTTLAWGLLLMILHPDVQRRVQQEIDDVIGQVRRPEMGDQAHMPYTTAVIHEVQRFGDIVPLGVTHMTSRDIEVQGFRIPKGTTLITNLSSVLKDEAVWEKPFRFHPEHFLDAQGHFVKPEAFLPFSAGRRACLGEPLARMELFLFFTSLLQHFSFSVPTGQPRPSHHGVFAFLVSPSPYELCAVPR
Sequence of FAD-linked sulfhydryl oxidase ALR (P55789 whole entry): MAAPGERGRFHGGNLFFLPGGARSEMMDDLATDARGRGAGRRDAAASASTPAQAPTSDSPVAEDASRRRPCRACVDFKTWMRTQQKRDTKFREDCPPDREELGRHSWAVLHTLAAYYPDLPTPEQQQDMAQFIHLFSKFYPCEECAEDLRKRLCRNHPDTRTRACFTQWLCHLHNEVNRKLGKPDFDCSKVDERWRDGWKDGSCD
Sequence of Large T antigen (P03070 whole entry): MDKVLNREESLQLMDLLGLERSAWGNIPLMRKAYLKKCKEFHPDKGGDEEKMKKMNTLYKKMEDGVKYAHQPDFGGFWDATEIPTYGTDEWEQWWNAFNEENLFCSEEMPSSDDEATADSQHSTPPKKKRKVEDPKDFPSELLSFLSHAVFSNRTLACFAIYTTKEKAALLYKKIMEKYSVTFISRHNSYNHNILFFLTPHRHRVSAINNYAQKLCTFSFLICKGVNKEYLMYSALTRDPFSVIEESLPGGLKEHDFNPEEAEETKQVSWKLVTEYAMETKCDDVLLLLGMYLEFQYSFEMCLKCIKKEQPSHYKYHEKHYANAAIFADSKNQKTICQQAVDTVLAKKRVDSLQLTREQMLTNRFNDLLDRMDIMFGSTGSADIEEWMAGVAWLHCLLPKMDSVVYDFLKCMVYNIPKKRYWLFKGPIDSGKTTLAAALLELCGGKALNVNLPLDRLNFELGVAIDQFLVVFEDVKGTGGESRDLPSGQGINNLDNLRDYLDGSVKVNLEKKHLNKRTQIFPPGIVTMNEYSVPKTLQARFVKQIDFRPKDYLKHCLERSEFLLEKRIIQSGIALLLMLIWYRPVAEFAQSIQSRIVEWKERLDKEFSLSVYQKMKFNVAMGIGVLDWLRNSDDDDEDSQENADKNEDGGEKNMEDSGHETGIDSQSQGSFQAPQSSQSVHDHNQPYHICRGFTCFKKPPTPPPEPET

COc1ccc(NC(=O)c2ccc(=O)oc2)cc1
IC50 [1]: 11.5 µM (not active)

COCC(=O)n1nc(NCc2ccc(OC)cc2)nc1NCc1ccc(OC)cc1
AC50 [2]: 8.12 µM (active)

O=c1oc2cc(Oc3c([N+](=O)[O-])cc(C(F)(F)F)cc3[N+](=O)[O-])ccc2c2c1CCCC2
AC50 (Cytochrome P450 2C9): inconclusive | EC50 (Protein RecA): 1.55 µM (active) | AC50 (Cytochrome P450 2D6): 11.2 µM (inconclusive) | AC50 [3]: > 380 µM (inactive)

Cc1cccc(C)c1OCC(=O)NNC(=S)NC(=O)C1CC1
EC50 (Streptococcus): 7.38 µM (active) | EC50 [4]: > 160 µM (inactive) | AC50 [2]: 1.15 µM (active) | EC50 [5]: 0.412 µM (active) | EC50 [6]: 1.66 µM (active)

O=C(Nc1nc(-c2ccc(Cl)cc2)cs1)C1CCCO1 (configuration not stated)
IC50 [1]: 19.1 µM (not active)

O=C(O)c1cc(/C=N\O)ccc1OCc1ccccc1
IC50 (Leucine aminopeptidase): 16.4 µM (active)

O=C(CCOc1ccccc1)Nc1ccc(S(=O)(=O)N2CCCC2)cc1
IC50 [1]: 26.4 µM (not active)

CCOc1ccc(Nc2nc(Cc3nnc(SCC(=O)NCc4ccco4)n3CC)cs2)cc1
IC50 (Leucine aminopeptidase): 28.1 µM (active)

COc1cc2c(cc1OC)C(C)N(C(=O)c1cc3ccccc3o1)CC2 (configuration not stated)
CC50 [7]: 17.7 µM (active) | IC50 (cells): 39.6 µM (active)

O=C(COC(=O)CCc1ccccc1)NC12CC3CC(CC(C3)C1)C2
IC50 [1]: 19.6 µM (not active)

COc1cc(/C(C)=N/NC(=O)Cc2c(C)n[nH]c2O)ccc1O
IC50 (Large T antigen): 13 µM (active) | IC50 [8]: 69.8 µM (active) | AC50 [9]: 4.03 µM (active) | IC50 (Leucine aminopeptidase): 34.1 µM (active)

CCN(c1ccccc1)S(=O)(=O)c1ccc(OC)c(NC(=O)Cc2ccccc2OC)c1
CC50 [7]: > 50 µM (active) | IC50 (cells): 35 µM (active)

COc1ccc2sc(N3C(=O)C4CC=C(C)CC4C3=O)nc2c1 (configuration not stated)
IC50 (Leucine aminopeptidase): 35 µM (active)

Cc1c(Br)cc(C(=O)NC2CCCCC2)c(C)c1C
AC50 (Cytochrome P450 2C9): inconclusive | AC50 (Cytochrome P450 1A2): 3.55 µM (inconclusive)

O=C1CCSc2ccc(Cl)cc2N1Cc1cccc(Cl)c1
CC50 [7]: 35.5 µM (active) | IC50 (cells): 42.8 µM (active)

Cc1cc(NC(=O)CSc2nnc(-c3ccncc3)n2N)ccc1Br
IC50 [1]: > 50 µM (not active)

COC(=O)c1ccc(N2C(=O)C3CC(C)=C(C)CC3C2=O)cc1 (configuration not stated)
IC50 [1]: 10.9 µM (not active)

CCOc1ccc(N2C(=O)/C(=C\c3ccccc3OC)S(=O)(=O)C2c2cccc([N+](=O)[O-])c2)cc1 (configuration not stated)
AC50 [2]: 26.2 µM (active)

COc1ccc2sc(-c3ccccc3OC)c(-c3ccc(O)cc3)c2c1
AC50 [2]: 5.35 µM (active) | AC50 [10]: 4.27 µM (active)

O=C/C(=N\Nc1ccccc1)C(=O)c1ccc(Cl)cc1
AC50 [2]: 3.15 µM (active)

Cc1cc2nc(-c3ccc(NC(=O)C(C)C)cc3)oc2cc1C
IC50 (cells): 39.1 µM (active)

Cc1cc(O)nc(SCC(=O)Nc2ccc(F)cc2)c1C#N
IC50 (Leucine aminopeptidase): 4.1 µM (active)
